Patent publication US20010020029A1, “New multidose vial formulations for administering endo-N-(9-methyl-9-azabicyclo[3.3.1]non-3-yl)-1-methyl-1H- indazole-3-carboxamide hydrochloride” (SmithKline Beecham p.l.c., priority 1998, published 2001)
Marks after values point to notes of the source that are not given here.

Columns and labels:
[1] = Stability of preservative systems to autoclave (placebo solutions, pH6, 121° C.); format: physicochemical; conditions: for Area percent for the unknown peak at 15 mins / Content at 15 mins (percentage of total peak area): autoclaved 15 mins; for Area percent for the unknown peak at 60 mins / Content at 60 mins (percentage of total peak area): autoclaved 60 mins; for Area percent for the unknown peak, initial / Initial content (percentage of total peak area): before autoclaving; for Content at 15 mins (percentage of total peak area) / Content at 60 mins (percentage of total peak area) / Initial content (percentage of total peak area): single paraben system, area normalisation; for Content after 15 mins (% of initial): autoclaved 15 minutes at 121° C.; for Content after 15 mins (% of initial) / Contents after 60 mins (% of initial): pH6; for Contents after 60 mins (% of initial): autoclaved 60 minutes at 121° C.; for Initial content: placebo solution pH6, before autoclaving; for stability to autoclaving (in words): up to 60 minutes at 121° C.
Method: The five preservative systems were assessed for stability to the autoclave process. Placebo solutions were prepared at pH6, filled into 2 ml glass vials and autoclaved for 15 and 60 minutes at 121° C. A cycle time of 60 minutes was selected to mimic the most extreme conditions to which a vial on the outside of a full autoclave load could be subjected to. Solutions were prepared at pH6 since this was the target pH of the multidose dose formulation. The early experiments were performed using 2 ml flint glass vials and West #1816 Teflon faced, bromobutyl rubber stopper.
External standards of the parabens could not be prepared due to their poor aqueous solubility. The results were therefore determined by are normalization, whereby peak areas are expressed as a percentage of the total peak area of the chromatograph.
NOTE: The results are expressed as percentage of total peak area determined by area normalisation.
Area percent for the unknown peak

[2] = tested on: bacteria, yeasts and molds; assay: USP test for preservative efficacy (overall); format: cell-based; conditions: 1% w/w, full vials, at the time of manufacture
Method: The target pH of the multidose vial is 6 and limits of 5 to 7. […] Efficacy of the preservative was therefore assessed over the lower pH range 4 to 6. Vials prepared at pH4, 5 and 6 were tested for preservative efficacy according to the USP XXII 1990—“Antimicrobial Preservative Effectiveness.”
For bacteria, the acceptance criteria require that the number of organisms per mL is reduced by a factor of not less than 10^3 in 14 days and there is no increase thereafter. All three batches met these criteria for P aeruginosa, S. aureus and E. coli.
All three batches met this criterion for C. albicans and A. niger.
In summary, vials prepared at pH4, 5 and 6 all pass the USP test for preservative efficacy.

[3] = tested on: gram-positive and gram-negative bacteria, yeasts and molds; conditions: cited from earlier work; for efficacy against gram-positive and gram-negative bacteria, yeasts and molds: over the pH range 5-7
[4] = Stability of meta-cresol formulation to autoclaving; format: physicochemical; conditions: autoclave cycle
Method: To investigate this phenomenon further, the stability during autoclaving experiment was repeated on samples of the meta-cresol formulation. The degradation product content increased from 0.05% before autoclaving to 0.53% at 15 minutes then 0.93% at 60 minutes. […] Meta-cresol was therefore rejected as a possible preservative.

Area percent for the unknown peak at 15 mins [1]	Area percent for the unknown peak at 60 mins [1]	Area percent for the unknown peak, initial [1]	Content at 15 mins (percentage of total peak area) [1]	Content at 60 mins (percentage of total peak area) [1]	Initial content (percentage of total peak area) [1]	Compound	Content after 15 mins (% of initial) [1]	Contents after 60 mins (% of initial) [1]	Initial content [1]	stability to autoclaving (in words) [1]	antimicrobial preservative efficacy [2]	efficacy as a function of pH ([3]; literature)	efficacy against gram-positive and gram-negative bacteria, yeasts and molds [3]	compatibility with granisetron hydrochloride [4]
1.6%	2.7%	0.6%	98.4%	97.2%	99.4%	CCCOC(=O)c1ccc(O)cc1 [Propyl Parabens, Propyl paraben]	–	–	–	–	–	–	–	–
–	–	–	–	–	–	OCc1ccccc1 [Benzyl Alcohol, Benzyl alcohol]	100 % of initial	100 % of initial	10.0 mg/mL	good stability with no change in preservative content	efficacious	decreases with increasing pH above pH5	moderate efficacy	–
–	–	–	–	–	–	Cc1cccc(O)c1 [Meta-Cresol, Meta-cresol]	100 % of initial	100 % of initial	2.6 mg/mL	good stability with no change in preservative content	–	–	good efficacy	incompatible
(3.7%)*	(6.5%)*	(0.2%)*	96.3%	93.5%	99.8%	COC(=O)c1ccc(O)cc1 [Methyl-Parabens, Methyl paraben]	–	–	–	–	–	–	–	–
